Assay results as given in patent US9433621B2, “Substituted pyridine and pyrimidine derivatives and their use in treating viral infections” (Merck Sharp & Dohme Corp., priority 2010, dated 2016).

System: HCV replicon
Test: Cell-Based HCV Replicon Assay
Conditions: Hepatitis C virus; HCV Replicon assay, EC90 range, Table VI; read-out: EC90
In short: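 EC50 and EC90 taken from sigmoid fits of ΔCT (5B minus GAPDH) as the concentrations raising ΔCT by 1 and 3.2 over baseline, via multiplex real-time RT-PCR on lysates after 3 days. Replicon cells at 5000/well; 10 two-fold dilutions from 25–1 μM, 0.5% DMSO, 10% FBS.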

SMILES | EC90 [nM]
CCNC(=S)N[C@H]1C[C@@H](Nc2nc(N[C@H](C)C3CC3)nc(C)c2-c2nc3c(C4CC4)nccc3s2)[C@H](O)[C@@H]1O [Example 5024] | < 500
CNS(=O)(=O)C[C@H]1C[C@@H](Nc2nc(NCC3CC3)nc(C)c2-c2nc3c(C)nccc3s2)[C@H](O)[C@@H]1O [Example 5025] | < 500
CNS(=O)(=O)C[C@H]1C[C@@H](Nc2nc(NCC3CC3)nc(C)c2-c2nc3c(C)nc(C)cc3s2)[C@H](O)[C@@H]1O [Example 5026] | < 500
CNS(=O)(=O)C[C@H]1C[C@@H](Nc2nc(NC3CC3)nc(C)c2-c2nc3c(C)nc(C)cc3s2)[C@H](O)[C@@H]1O [Example 5027] | < 500
Cc1nc(N[C@H](C)c2c(F)c(F)c(C)c(F)c2F)nc(N[C@@H]2C[C@H](C(C)(C)O)[C@@H](O)[C@H]2O)c1-c1nc2c(N)nccc2s1 [Example 5028] | < 500
Cc1nc(N)nc(N[C@@H]2C[C@H](C(C)(C)O)[C@@H](O)[C@H]2O)c1-c1nc2c(N)nccc2s1 [Example 5029] | < 500
Cc1nc(NC2(C(C)C)CC2)nc(N[C@@H]2C[C@H](C(C)(C)O)[C@@H](O)[C@H]2O)c1-c1nc2c(C)nccc2s1 [Example 5030] | 500 to 5000
Cc1nc(NC2(CC(C)C)CC2)nc(N[C@@H]2C[C@H](C(C)(C)O)[C@@H](O)[C@H]2O)c1-c1nc2c(C)nccc2s1 [Example 5031] | 500 to 5000
Cc1nc(NC2COC3(CCCCC3)C2)nc(N[C@@H]2C[C@H](C(C)(C)O)[C@@H](O)[C@H]2O)c1-c1nc2c(C)nccc2s1 (stereo partly shown) [Example 5032] | < 500
CO[C@H](C)CNc1nc(C)c(-c2nc3c(C)nccc3s2)c(N[C@@H]2C[C@H](COc3c(F)ccc(F)c3F)[C@@H](O)[C@H]2O)n1 [Example 5033] | < 500
CO[C@H](C)CNc1nc(C)c(-c2nc3c(C)nccc3s2)c(N[C@@H]2C[C@H](COc3cc(F)c(F)cc3F)[C@@H](O)[C@H]2O)n1 [Example 5034] | < 500
Cc1nc(NCC(F)(F)C(F)(F)F)nc(N[C@@H]2C[C@H](C(C)(C)O)[C@@H](O)[C@H]2O)c1-c1nc2c(N)nccc2s1 [Example 5035] | < 500
COCCNc1nc(C)c(-c2nc3c(C)nccc3s2)c(N[C@@H]2C[C@H](C(C)(C)NS(C)(=O)=O)[C@@H](O)[C@H]2O)n1 [Example 5036] | < 500
COC[C@@H](C)Nc1nc(C)c(-c2nc3c(C)nccc3s2)c(N[C@@H]2C[C@H](C(C)(C)NS(C)(=O)=O)[C@@H](O)[C@H]2O)n1 [Example 5037] | < 500
CO[C@H](C)CNc1nc(C)c(-c2nc3c(C)nccc3s2)c(N[C@@H]2C[C@H](C(C)(C)NS(C)(=O)=O)[C@@H](O)[C@H]2O)n1 [Example 5038] | < 500
Cc1nc(NCCSC(C)(C)C)nc(N[C@@H]2C[C@H](C(C)(C)NS(C)(=O)=O)[C@@H](O)[C@H]2O)c1-c1nc2c(C)nccc2s1 [Example 5039] | < 500
COC[C@@H](C)Nc1nc(C)c(-c2nc3c(C)nccc3s2)c(N[C@@H]2C[C@H](C(C)(C)NC(=O)OC)[C@@H](O)[C@H]2O)n1 [Example 5040] | < 500
COC(=O)NC(C)(C)[C@H]1C[C@@H](Nc2nc(NC[C@@H](C)OC)nc(C)c2-c2nc3c(C)nccc3s2)[C@H](O)[C@@H]1O [Example 5041] | < 500
COCCNc1nc(C)c(-c2nc3c(C)nccc3s2)c(N[C@@H]2C[C@H](C(C)(C)NC(=O)OC)[C@@H](O)[C@H]2O)n1 [Example 5042] | < 500
Cc1nc(NCC2CC2)nc(N[C@@H]2C[C@H](C(C)(C)NS(C)(=O)=O)[C@@H](O)[C@H]2O)c1-c1nc2c(C)nccc2s1 [Example 5044] | < 500
Cc1nc(NCC(C)(C)C)nc(N[C@@H]2C[C@H](C(C)(C)NS(C)(=O)=O)[C@@H](O)[C@H]2O)c1-c1nc2c(C)nccc2s1 [Example 5045] | < 500
COC(=O)NC(C)(C)[C@H]1C[C@@H](Nc2nc(NCC3CC3)nc(C)c2-c2nc3c(C)nccc3s2)[C@H](O)[C@@H]1O [Example 5046] | < 500
COC(=O)NC(C)(C)[C@H]1C[C@@H](Nc2nc(NCC(C)(C)C)nc(C)c2-c2nc3c(C)nccc3s2)[C@H](O)[C@@H]1O [Example 5047] | < 500
Cc1nc(NC2CC2)nc(N[C@@H]2C[C@H](C(C)(C)NS(C)(=O)=O)[C@@H](O)[C@H]2O)c1-c1nc2c(C)nccc2s1 [Example 5048] | < 500
Cc1nc(NC2CCC2)nc(N[C@@H]2C[C@H](C(C)(C)NS(C)(=O)=O)[C@@H](O)[C@H]2O)c1-c1nc2c(C)nccc2s1 [Example 5049] | < 500
COC(=O)NC(C)(C)[C@H]1C[C@@H](Nc2nc(NC3CC3)nc(C)c2-c2nc3c(C)nccc3s2)[C@H](O)[C@@H]1O [Example 5050] | < 500
Cc1nc(NCC2CC2)nc(N[C@@H]2C[C@H](C(C)(C)N=[N+]=[N-])[C@@H](O)[C@H]2O)c1-c1nc2c(C3CC3)nccc2s1 [Example 5051] | < 500
CCS(=O)(=O)C(C)(C)[C@H]1C[C@@H](Nc2nc(NCC3CC3)nc(C)c2-c2nc3c(C)nccc3s2)[C@H](O)[C@@H]1O [Example 5057] | < 500

SMILES | EC90 [nM]
CCS(=O)(=O)C(C)(C)[C@H]1C[C@@H](Nc2nc(NC3CCC3)nc(C)c2-c2nc3c(C)nccc3s2)[C@H](O)[C@@H]1O [Example 5058] | < 500
CCS(=O)(=O)C(C)(C)[C@H]1C[C@@H](Nc2nc(NCC3CC3)nc(C)c2-c2nc3c(C4CC4)nccc3s2)[C@H](O)[C@@H]1O [Example 5059] | < 500
CCS(=O)(=O)C(C)(C)[C@H]1C[C@@H](Nc2nc(NC3CCC3)nc(C)c2-c2nc3c(C4CC4)nccc3s2)[C@H](O)[C@@H]1O [Example 5060] | < 500
CCS(=O)(=O)C(C)(C)[C@H]1C[C@@H](Nc2nc(NCc3c(F)cc(F)cc3F)nc(C)c2-c2nc3c(C4CC4)nccc3s2)[C@H](O)[C@@H]1O [Example 5061] | < 500
Cc1nc(NC2CCC2)nc(N[C@@H]2C[C@H](C(C)(C)S(C)(=O)=O)[C@@H](O)[C@H]2O)c1-c1nc2c(C)nccc2s1 [Example 5062] | < 500
Cc1nc(NCc2c(F)cc(F)cc2F)nc(N[C@@H]2C[C@H](C(C)(C)S(C)(=O)=O)[C@@H](O)[C@H]2O)c1-c1nc2c(C)nccc2s1 [Example 5063] | < 500
Cc1nc(NC2CCC2)nc(N[C@@H]2C[C@H](C(C)(C)S(C)(=O)=O)[C@@H](O)[C@H]2O)c1-c1nc2c(C3CC3)nccc2s1 [Example 5064] | < 500
Cc1nc(NCc2c(F)cc(F)cc2F)nc(N[C@@H]2C[C@H](C(C)(C)S(C)(=O)=O)[C@@H](O)[C@H]2O)c1-c1nc2c(C3CC3)nccc2s1 [Example 5065] | < 500
Cc1nc(NCC2CC2)nc(N[C@@H]2C[C@H](C(C)(C)S(=O)(=O)c3ccccc3)[C@@H](O)[C@H]2O)c1-c1nc2c(C)nccc2s1 [Example 5066] | < 500
Cc1nc(NCC(F)(F)F)nc(N[C@@H]2C[C@H](C(C)(C)S(=O)(=O)c3ccccc3)[C@@H](O)[C@H]2O)c1-c1nc2c(C)nccc2s1 [Example 5067] | < 500
Cc1nc(NCC(C)(C)C)nc(N[C@@H]2C[C@H](C(C)(C)S(=O)(=O)c3ccccc3)[C@@H](O)[C@H]2O)c1-c1nc2c(C)nccc2s1 [Example 5068] | < 500
Cc1nc(N)nc(N[C@@H]2C[C@H](C(C)(C)S(C)(=O)=O)[C@@H](O)[C@H]2O)c1-c1nc2c(C)nccc2s1 [Example 5069] | < 500
Cc1nc(NCC2CC2)nc(N[C@@H]2C[C@H](C(C)(C)S(C)(=O)=O)[C@@H](O)[C@H]2O)c1-c1nc2c(C)nccc2s1 [Example 5070] | < 500
COCCNc1nc(C)c(-c2nc3c(C)nccc3s2)c(N[C@@H]2C[C@H](C(C)(C)S(C)(=O)=O)[C@@H](O)[C@H]2O)n1 [Example 5071] | < 500
Cc1nc(N)nc(N[C@@H]2C[C@H](C(C)(C)S(C)(=O)=O)[C@@H](O)[C@H]2O)c1-c1nc2c(C3CC3)nccc2s1 [Example 5072] | < 500
Cc1nc(NCC2CC2)nc(N[C@@H]2C[C@H](C(C)(C)S(C)(=O)=O)[C@@H](O)[C@H]2O)c1-c1nc2c(C3CC3)nccc2s1 [Example 5073] | < 500
Cc1nc(NCC(C)(C)C)nc(N[C@@H]2C[C@H](C(C)(C)S(C)(=O)=O)[C@@H](O)[C@H]2O)c1-c1nc2c(C3CC3)nccc2s1 [Example 5074] | < 500
COCCNc1nc(C)c(-c2nc3c(C4CC4)nccc3s2)c(N[C@@H]2C[C@H](C(C)(C)S(C)(=O)=O)[C@@H](O)[C@H]2O)n1 [Example 5075] | < 500
Cc1nc(N)nc(N[C@@H]2C[C@H](C(C)(C)S(=O)(=O)c3ccccc3)[C@@H](O)[C@H]2O)c1-c1nc2c(C)nccc2s1 [Example 5076] | < 500
COCCNc1nc(C)c(-c2nc3c(C)nccc3s2)c(N[C@@H]2C[C@H](C(C)(C)S(=O)(=O)c3ccccc3)[C@@H](O)[C@H]2O)n1 [Example 5077] | < 500
Cc1nc(NCC(F)(F)F)nc(N[C@@H]2C[C@H](C(C)(C)S(C)(=O)=O)[C@@H](O)[C@H]2O)c1-c1nc2c(C)nccc2s1 [Example 5078] | < 500
Cc1nc(NCC(F)(F)F)nc(N[C@@H]2C[C@H](C(C)(C)S(C)(=O)=O)[C@@H](O)[C@H]2O)c1-c1nc2c(C3CC3)nccc2s1 [Example 5079] | < 500
Cc1nc(NCC2CC2)nc(N[C@@H]2C[C@H](C(C)(C)S(=O)(=O)c3ccccc3)[C@@H](O)[C@H]2O)c1-c1nc2c(N)nccc2s1 [Example 5080] | < 500
Cc1nc(N)nc(N[C@@H]2C[C@H](C(C)(C)S(=O)(=O)c3ccccc3)[C@@H](O)[C@H]2O)c1-c1nc2c(N)nccc2s1 [Example 5081] | < 500
Cc1nc(NCc2c(F)cccc2F)nc(N[C@@H]2C[C@H](NC(=O)NCc3ccccc3F)[C@@H](O)[C@H]2O)c1-c1nc2c(C3CC3)nccc2s1 [Example 5082] | 500 to 5000
Cc1nc(NCc2c(F)cccc2F)nc(N[C@@H]2C[C@H](NC(=O)NC(C)C)[C@@H](O)[C@H]2O)c1-c1nc2c(C3CC3)nccc2s1 [Example 5083] | < 500
Cc1nc(NCc2c(F)cccc2F)nc(N[C@@H]2C[C@H](NC(=O)OCc3nccs3)[C@@H](O)[C@H]2O)c1-c1nc2c(C3CC3)nccc2s1 [Example 5084] | < 500
